Source: BigSolDB 2.1

Details: 298.15 K

O=C(O)c1ccc(Cl)c(Cl)c1
Details	solubility (mole fraction)
in 1,4-dioxane	0.0493
in 2-butoxyethanol	0.0399
in 2-ethoxyethanol	0.0445
in 2-isopropoxyethanol	0.0483
in 2-methyl-1-butanol	0.0183
in 2-methyl-1-pentanol	0.0239
in 2-pentanol	0.0248
in 2-propoxyethanol	0.0468
in 3-methoxy-1-butanol	0.0503
in 4-methyl-2-pentanol	0.0255
in MTBE	0.0358
in THF	0.101
in dibutyl ether	0.00969
in diethyl ether	0.0308
in diisopropyl ether	0.0126
in ethanol	0.0173
in ethyl acetate	0.0164
in isobutanol	0.0139
in isopentanol	0.0216
in isopropanol	0.0177
in methyl acetate	0.0119
in methyl butyrate	0.0143
in n-butanol	0.0203
in n-butyl acetate	0.0206
in n-heptanol	0.0251
in n-hexanol	0.0238
in n-octanol	0.0242
in n-pentanol	0.0218
in n-pentyl acetate	0.0216
in n-propanol	0.0185
in n-propyl acetate	0.0176
in sec-butanol	0.019
in tert-butanol	0.0345
